Reference: patent publication US8450461B2, “Risperidone immunoassay” (Saladax Biomedical Inc., priority 2010, dated 2013)

Legend:
Type in all cases: binding, mouse
[1] = tested on: polyclonal antibodies to risperidone, bleed G1M1; assay: Indirect competitive microtiter plate immunoassay (ELISA), cross-reactivity, polyclonal anti-serum bleed G1M1; conditions: polyclonal antibodies (Example 6a), relative to risperidone = 100%
Method: (§1) Ten female BALB/c mice were immunized i.p. with 100 μg/mouse of risperidone [9]-KLH immunogen, as prepared in Example 4, emulsified in Complete Freund's Adjuvant. The mice were boosted once, four weeks after the initial injection with 100 μg/mouse of the same immunogen emulsified in Incomplete Freund's Adjuvant. Twenty days after the boost, test bleeds containing polyclonal antibodies from each mouse were obtained by orbital bleed. The test bleeds were fractionated by centrifugation to yield anti-sera. The anti-sera from these test bleeds, which contain polyclonal antibodies to risperidone [9]-KLH immunogen, were evaluated in Examples 8a and 9.
(§2) The ELISA method for measuring risperidone concentrations was performed in polystyrene microtiter plates (Nunc MaxiSorp F8 Immunomodules) optimized for protein binding and containing 96 wells per plate. Each well was coated with risperidone [9]-BSA conjugate (prepared as in Example 5a) by adding 300 μL of risperidone [9]-BSA conjugate at 10 μg/mL in 0.05M sodium carbonate, pH 9.6, and incubating for three hours at room temperature. The wells were washed with 0.05M sodium carbonate, pH 9.6 and then were blocked with 375 μL of 5% sucrose, 0.2% sodium caseinate solution for 30 minutes at room temperature. After removal of the post-coat solution the plates were dried at 37° C. overnight.
as §2, with “[14]-BSA” for “[9]-BSA”, “5b)” for “5a)”
(§3) This procedure is to find the dilution of antibody or anti-serum to be tested for displacement as in Example 9. The ELISA method for screening risperidone antibodies (produced in Example 6) was performed with the microtiter plates that were sensitized with risperidone-BSA conjugate prepared in Examples 7a and 7b. The antibody screening assay was performed by diluting the murine serum from test bleeds (as in Example 6) containing polyclonal risperidone antibodies to 1:2,000, 1:[…] and 1:54,000 (volume/volume) in phosphate buffered saline containing 0.1% BSA and 0.01% thimerosal. […] (volume/volume) in phosphate buffered saline containing 0.1% BSA and 0.01% thimerosal. […]

[2] = tested on: polyclonal antibodies to risperidone, bleed G1M3; assay: Indirect competitive microtiter plate immunoassay (ELISA), cross-reactivity, polyclonal anti-serum bleed G1M3; conditions: polyclonal antibodies (Example 6a), relative to risperidone = 100%
Method: as §1, §2
as §2, with “[14]-BSA” for “[9]-BSA”, “5b)” for “5a)”
as §3

[3] = tested on: polyclonal antibodies to risperidone, bleed G2M1; assay: Indirect competitive microtiter plate immunoassay (ELISA), cross-reactivity, polyclonal anti-serum bleed G2M1; conditions: polyclonal antibodies (Example 6a), relative to risperidone = 100%
Method: as §1, §2
as §2, with “[14]-BSA” for “[9]-BSA”, “5b)” for “5a)”
as §3

[4] = tested on: polyclonal antibodies to risperidone, bleed G2M5; assay: Indirect competitive microtiter plate immunoassay (ELISA), cross-reactivity, polyclonal anti-serum bleed G2M5; conditions: polyclonal antibodies (Example 6a), relative to risperidone = 100%
Method: as §1, §2
as §2, with “[14]-BSA” for “[9]-BSA”, “5b)” for “5a)”
as §3

[5] = tested on: monoclonal antibody to risperidone 4B9-21; assay: Indirect competitive microtiter plate immunoassay (ELISA), cross-reactivity, monoclonal antibody 4B9-21; conditions: monoclonal antibody number 4B9-21 (Example 6b); relative to risperidone = 100%
Method: (§4) Mice from example 6a that were immunized with risperidone [9]-KLH prepared in 4 were used to produce monoclonal antibodies. For monoclonal antibodies starting three days before the fusion, the mice were injected i.p. with 400 μg (3 days before fusion), 200 μg (2 days before fusion), and 200 μg (1 day before fusion) of risperidone [9]-KLH in PBS/DMSO prepared in example 4. Spleen cells were isolated from the selected mice and fused with 2×10^7 SP2/0 cells with 50% polyethylene glycol 1500 according to the method of Coligan, J. E. et al., eds., Current Protocols in Immunology, 2.5.1-2.5.8, (1992), Wiley & Sons, NY. The fused cells were plated on ten 96-well plates in DMEM/F12 supplemented with 20% FetalClone I, 2% L-glutamine (100 mM) and 2% 50× HAT. Two to three weeks later, the hybridoma supernatant was assayed for the presence of anti-risperidone antibodies by ELISA (as in example 8b). Cells from the wells that gave positive ELISA results (example 8b) were expanded to 24 well plates. Clones positive by ELISA were subcloned twice by limiting dilution according to the method disclosed in Coligan, J. E. et al., eds., Current Protocols in Immunology, 2.5.8-2.5.17, 1992, Wiley & Sons, NY. Hybridoma culture supernatants containing monoclonal antibody from selected subclones were confirmed for risperidone binding by a competitive ELISA (example 9). […]

[6] = tested on: monoclonal antibody to risperidone 5D5-3; assay: Indirect competitive microtiter plate immunoassay (ELISA), cross-reactivity, monoclonal antibody 5D5-3; conditions: monoclonal antibody number 5D5-3 (Example 6b); relative to risperidone = 100%
Method: as §4

[7] = tested on: antibodies to risperidone (pool of antibodies); assay: Competitive immunoassay / screening with the pool of antibodies to risperidone
Method: The present invention relates to novel antibodies and monoclonal antibodies to risperidone and paliperidone. The antisera of the invention can be conveniently produced by immunizing host animals with the immunogens of this invention. Suitable host animals include rodents, such as, for example, mice, rats, rabbits, guinea pigs and the like, or higher mammals such as goats, sheep, horses and the like. […]
The ELISA method for determining IC50 values and cross-reactivity was performed with the microtiter plates that were sensitized with risperidone-BSA conjugates as described in Examples 7a and 7b. […] The assays were all performed by diluting the concentration of the anti-sera or monoclonal antibodies in each of the wells to the titer determined in Example 8a. […] Following the incubation for color development, 50 μL of stop solution (1.5% sodium fluoride in di H2O) was added to each well to stop the color development and after 20 seconds of shaking the absorbance was determined at 650 nm (Molecular Devices Plate Reader). The amount of antibody in a well was proportional to the absorbance measured and inversely proportional to the amount of risperidone in the sample. The IC50's of risperidone and paliperidone were determined by constructing dose-response curves with the absorbance in the wells plotted versus analyte concentration in the wells. […]

SMILES	Cross-reactivity of competitive immunoassay [1]	Cross-reactivity of competitive immunoassay [2]	Cross-reactivity of competitive immunoassay [3]	Cross-reactivity of competitive immunoassay [4]	Cross-reactivity of competitive immunoassay [5]	Cross-reactivity of competitive immunoassay [6]	binding of the antibodies to the compound (screening) ([7]; antibodies from immunized mice screened against the compound)	percent cross-reactivities relative to risperidone ([7]; measured with this pool of antibodies, ratio of IC50 risperidone to IC50 paliperidone)
Fc1ccc2c(C3CCNCC3)noc2c1 [N-dealkyl-risperidone]	0.02%	0.07%	0.09%	0.1%				
Cc1nc2n(c(=O)c1CCN1CCC(c3noc4cc(F)ccc34)CC1)CC(O)CC2 (stereo not shown) [7-hydroxy-risperidone]	50%	66%	65%	69%	30%	39%		
Cc1nc2n(c(=O)c1CCN1CCC(c3noc4cc(F)ccc34)CC1)CCCC2 [Risperidone, risperidone]	100%	100%	100%	100%	100%	100%		
Cc1nc2n(c(=O)c1CCN1CCC(c3noc4cc(F)ccc34)CC1)CCCC2O (stereo not shown) [Paliperidone, paliperidone]	81%	80%	98%	81%			substantial binding	100±20%
